Data published in the supplement of paper PMC10883282.

Experiments:
Experiment in all cases: relative viability vs DMSO control (72 h) (fraction); higher = more viable cells
G401 = test system: G401
Procedure, shortened: (§1)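 ATPLite readings, expressed as percent growth and averaged over up to triplicate wells, provided relative viability. Before reading, sarcoma cell lines seeded in 384-well plates to reach 80–90% confluence received 2.5 µl of serially diluted compound after 24 h, from source plates of 10 mM to 0.0002 mM. Plates were held 72 h at 37 °C, 5% CO2, with 0.1% DMSO as vehicle and a 5 µM positive control. The data were rescaled to 1 for full and 0 for none.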

KHOS-240S = test system: KHOS-240S
Procedure, shortened: as §1

SW684 = test system: SW684
Procedure, shortened: as §1

SK-LMS-1 = test system: SK-LMS-1
Procedure, shortened: as §1

SW872 = test system: SW872
Procedure, shortened: as §1

SW1353 = test system: SW1353
Procedure, shortened: as §1

SYO-1 = test system: SYO-1
Procedure, shortened: as §1

HS729 = test system: HS729
Procedure, shortened: as §1

A204 = test system: A204
Procedure, shortened: as §1

SK-ES-1 = test system: SK-ES-1
Procedure, shortened: as §1

SW982 = test system: SW982
Procedure, shortened: as §1

MES-SA = test system: MES-SA
Procedure, shortened: as §1

O=c1sn(-c2cccc3ccccc23)c(=O)n1Cc1ccccc1 [Tideglusib]
Conditions	relative viability
A204, 0.00017 µM	1.09
A204, 0.00051 µM	1.131
A204, 0.00152 µM	1.12
A204, 0.00457 µM	1.12
A204, 0.01372 µM	1.14
A204, 0.04115 µM	1.11
A204, 0.1235 µM	1.12
A204, 0.3704 µM	1.12
A204, 1.111 µM	1.134
A204, 3.333 µM	1.1
A204, 10 µM	1.07
G401, 0.00017 µM	1.08
G401, 0.00051 µM	1.12
G401, 0.00152 µM	1.08
G401, 0.00457 µM	1.1
G401, 0.01372 µM	1.08
G401, 0.04115 µM	1.07
G401, 0.1235 µM	1.05
G401, 0.3704 µM	1.04
G401, 1.111 µM	0.984
G401, 3.333 µM	0.9812
G401, 10 µM	0.918
HS729, 0.00017 µM	1.1
HS729, 0.00051 µM	1.07
HS729, 0.00152 µM	1.07
HS729, 0.00457 µM	1.04
HS729, 0.01372 µM	1.03
HS729, 0.04115 µM	1
HS729, 0.1235 µM	0.972
HS729, 0.3704 µM	0.956
HS729, 1.111 µM	0.908
HS729, 3.333 µM	0.933
HS729, 10 µM	0.861
KHOS-240S, 0.00017 µM	1.05
KHOS-240S, 0.00051 µM	1.07
KHOS-240S, 0.00152 µM	1.09
KHOS-240S, 0.00457 µM	1.07
KHOS-240S, 0.01372 µM	1.08
KHOS-240S, 0.04115 µM	1.07
KHOS-240S, 0.1235 µM	1.07
KHOS-240S, 0.3704 µM	1.06
KHOS-240S, 1.111 µM	1.03
KHOS-240S, 3.333 µM	1.01
KHOS-240S, 10 µM	0.993
MES-SA, 0.00017 µM	0.972
MES-SA, 0.00051 µM	0.971
MES-SA, 0.00152 µM	0.946
MES-SA, 0.00457 µM	0.968
MES-SA, 0.01372 µM	0.962
MES-SA, 0.04115 µM	0.963
MES-SA, 0.1235 µM	0.959
MES-SA, 0.3704 µM	0.95
MES-SA, 1.111 µM	0.94
MES-SA, 3.333 µM	0.924
MES-SA, 10 µM	0.878
SK-ES-1, 0.00017 µM	1.03
SK-ES-1, 0.00051 µM	1.06
SK-ES-1, 0.00152 µM	1.09
SK-ES-1, 0.00457 µM	1.12
SK-ES-1, 0.01372 µM	1.083
SK-ES-1, 0.04115 µM	1.08
SK-ES-1, 0.1235 µM	1.05
SK-ES-1, 0.3704 µM	1.03
SK-ES-1, 1.111 µM	1.03
SK-ES-1, 3.333 µM	0.977
SK-ES-1, 10 µM	0.923
SK-LMS-1, 0.00017 µM	1.02
SK-LMS-1, 0.00051 µM	1.01
SK-LMS-1, 0.00152 µM	1.02
SK-LMS-1, 0.00457 µM	1.01
SK-LMS-1, 0.01372 µM	0.994
SK-LMS-1, 0.04115 µM	1.02
SK-LMS-1, 0.1235 µM	1.02
SK-LMS-1, 0.3704 µM	0.993
SK-LMS-1, 1.111 µM	1
SK-LMS-1, 3.333 µM	1.01
SK-LMS-1, 10 µM	0.986
SW684, 0.00017 µM	1.17
SW684, 0.00051 µM	1.19
SW684, 0.00152 µM	1.21
SW684, 0.00457 µM	1.14
SW684, 0.01372 µM	1.16
SW684, 0.04115 µM	1.14
SW684, 0.1235 µM	1.17
SW684, 0.3704 µM	1.11
SW684, 1.111 µM	1.16
SW684, 3.333 µM	1.09
SW684, 10 µM	1.1
SW872, 0.00017 µM	1.1
SW872, 0.00051 µM	1.09
SW872, 0.00152 µM	1.09
SW872, 0.00457 µM	1.09
SW872, 0.01372 µM	1.09
SW872, 0.04115 µM	1.1
SW872, 0.1235 µM	1.08
SW872, 0.3704 µM	1.05
SW872, 1.111 µM	1.07
SW872, 3.333 µM	1.07
SW872, 10 µM	1.03
SW982, 0.00017 µM	1.07
SW982, 0.00051 µM	1.09
SW982, 0.00152 µM	1.08
SW982, 0.00457 µM	1.11
SW982, 0.01372 µM	1.11
SW982, 0.04115 µM	1.11
SW982, 0.1235 µM	1.1
SW982, 0.3704 µM	1.09
SW982, 1.111 µM	1.068
SW982, 3.333 µM	1.08
SW982, 10 µM	1.05
SW1353, 0.00017 µM	1.07
SW1353, 0.00051 µM	1.05
SW1353, 0.00152 µM	1.08
SW1353, 0.00457 µM	1.04
SW1353, 0.01372 µM	1.02
SW1353, 0.04115 µM	1.05
SW1353, 0.1235 µM	1.03
SW1353, 0.3704 µM	0.966
SW1353, 1.111 µM	1.01
SW1353, 3.333 µM	0.987
SW1353, 10 µM	0.827
SYO-1, 0.00017 µM	1.01
SYO-1, 0.00051 µM	0.987
SYO-1, 0.00152 µM	0.999
SYO-1, 0.00457 µM	0.97
SYO-1, 0.01372 µM	0.956
SYO-1, 0.04115 µM	0.944
SYO-1, 0.1235 µM	0.949
SYO-1, 0.3704 µM	0.953
SYO-1, 1.111 µM	0.969
SYO-1, 3.333 µM	0.944
SYO-1, 10 µM	0.891
